# According to patent publication US20240409585A1, “MACROCYCLIC IMMUNOMODULATORS” (priority 2021, published 2024):
# Numbered stars: 1 amine (or outer) side, 2 acyl side, 3 side chain; on linkers, the order of the positions; unused ones are H or OH. Bridge positions count the residues as written; N and C are the ends. Square brackets hold non-standard residues; d marks the D form. Peptide text beside a SMILES is read from it. * marks the point of attachment. X39 = COc1cccc(-c2ccc(C[C@H](N[*:1])C(=O)[*:2])cc2)c1; X19 = Cc1cccc(-c2ccc(C[C@H](N[*:1])C(=O)[*:2])cc2)c1; Phe(4-COOH) = N[C@@H](Cc1ccc(C(=O)O)cc1)C(=O)O; Trp(7-Me) = Cc1cccc2c(C[C@H](N)C(=O)O)c[nH]c12; Bip = N[C@@H](Cc1ccc(-c2ccccc2)cc1)C(=O)O; Phe(2-Me) = Cc1ccccc1C[C@H](N)C(=O)O; 3Pal = N[C@@H](Cc1cccnc1)C(=O)O; Carboxymethyl = O=C(O)C*; NMeA = CN[C@@H](C)C(=O)O; Nle = CCCC[C@H](N)C(=O)O; dDap = NC[C@@H](N)C(=O)O; Dab = NCC[C@H](N)C(=O)O
# Molecular target: T1, PE-labeled human PD-L1-Ig binding to Jurkat cell line over-expressing human PD-1 (Jurkat-PD-1) (Homo sapiens, UniProt Q15116)
# T1 construct: expressed in transfected cells; host or cells: Jurkat
# Test: Jurkat-PD-1 Cell Binding High-Content Screening Assay (CBA): Method 1
# Settings: Jurkat-hPD-1 cells, PE-labeled PD-L1-Ig 20 nM final; read-out: Jurkat HPDL1 PD1 IC50 (uM) (Method 1)
# T1 sequence (Q15116 25-288): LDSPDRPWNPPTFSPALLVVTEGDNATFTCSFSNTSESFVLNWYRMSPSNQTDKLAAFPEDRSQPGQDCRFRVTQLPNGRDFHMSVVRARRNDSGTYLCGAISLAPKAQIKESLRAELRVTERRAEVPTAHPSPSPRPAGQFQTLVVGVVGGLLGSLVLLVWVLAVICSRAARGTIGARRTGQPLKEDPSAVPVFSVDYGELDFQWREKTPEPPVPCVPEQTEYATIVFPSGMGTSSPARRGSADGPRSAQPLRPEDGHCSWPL
row,IC50 [µM],Compound
1,0.09,CC(C)C[C@@H]1NC(=O)[C@H](Cc2c[nH]c3ccccc23)NC(=O)[C@H](CC(=O)O)NC(=O)[C@H](Cc2ccc(O)cc2)NC(=O)[C@H](Cc2ccccc2)NC(=O)CSC[C@@H](C(=O)NCC(N)=O)NC(=O)[C@H](CO)NC(=O)[C@H](C(C)C)NC(=O)[C@H](CC(C)C)NC(=O)[C@H](CC(N)=O)NC(=O)[C@@H](CCC(N)=O)NC(=O)[C@H](C)N(C)C(=O)[C@H](C(C)C)NC(=O)[C@H](Cc2ccc(-c3ccccc3)cc2)NC1=O [Compound 1784] ({CH2CO}-FYDWL[Bip]V[NMeA][dQ]NLVSCG-NH2; thioether N-14)
2,0.09,CC(C)C[C@@H]1NC(=O)[C@H](C)NC(=O)[C@@H](C)NC(=O)[C@H](C)N(C)C(=O)[C@H](CCC(=O)O)NC(=O)[C@H](Cc2ccc(-c3ccccc3)cc2)NC(=O)[C@H](CC(C)C)NC(=O)[C@H](Cc2c[nH]c3ccccc23)NC(=O)[C@H](CC(=O)O)NC(=O)[C@H](Cc2ccc(O)cc2)NC(=O)[C@H](Cc2ccccc2)NC(=O)CSC[C@@H](C(=O)N[C@@H](C)C(N)=O)NC(=O)[C@H](CO)NC(=O)[C@H](C(C)C)NC1=O [Compound 1785] ({CH2CO}-FYDWL[Bip]E[NMeA][dA]ALVSCA-NH2; thioether N-14)
3,0.1,CC(C)C[C@@H]1NC(=O)[C@H](C)NC(=O)[C@@H](C)NC(=O)[C@H](C)N(C)C(=O)[C@H](CCC(=O)O)NC(=O)[C@H](Cc2ccc(-c3ccccc3)cc2)NC(=O)[C@H](CC(C)C)NC(=O)[C@H](Cc2c[nH]c3ccccc23)NC(=O)[C@H](CC(=O)O)NC(=O)[C@H](Cc2ccc(C(=O)O)cc2)NC(=O)[C@H](Cc2cccnc2)NC(=O)CSC[C@@H](C(=O)N[C@@H](C)C(N)=O)NC(=O)[C@H](CO)NC(=O)[C@H](C(C)C)NC1=O [Compound 1786] ({CH2CO}-[3Pal][Phe(4-COOH)]DWL[Bip]E[NMeA][dA]ALVSCA-NH2; thioether N-14)
4,0.1,CC(C)C[C@@H]1NC(=O)[C@H](Cc2c[nH]c3ccccc23)NC(=O)[C@H](CC(=O)O)NC(=O)[C@H](Cc2ccc(O)cc2)NC(=O)[C@H](Cc2ccccc2)NC(=O)CSC[C@@H](C(=O)N[C@@H](C)C(N)=O)NC(=O)[C@H](CO)NC(=O)[C@H](C(C)C)NC(=O)[C@H](CC(C)C)NC(=O)[C@H](CC(N)=O)NC(=O)[C@@H](CN)NC(=O)[C@H](C)N(C)C(=O)[C@H](C(C)C)NC(=O)[C@H](Cc2ccc(-c3ccccc3)cc2)NC1=O [Compound 1787] ({CH2CO}-FYDWL[Bip]V[NMeA][dDap]NLVSCA-NH2; thioether N-14)
5,0.11,Cc1cccc(-c2ccc(C[C@@H]3NC(=O)[C@H](CC(C)C)NC(=O)[C@H](Cc4c[nH]c5ccccc45)NC(=O)[C@H](CC(=O)O)NC(=O)[C@H](Cc4ccc(O)cc4)NC(=O)[C@H](Cc4ccccc4)NC(=O)CSC[C@@H](C(=O)N[C@@H](C)C(N)=O)NC(=O)[C@H](CO)NC(=O)[C@H](C(C)C)NC(=O)[C@H](CC(C)C)NC(=O)[C@H](CC(N)=O)NC(=O)[C@@H](C)NC(=O)[C@H](C)N(C)C(=O)[C@H](C(C)C)NC3=O)cc2)c1 [Compound 1788] ({CH2CO}-FYDWL[X19]V[NMeA][dA]NLVSCA-NH2; thioether N-14)
6,0.12,CC(C)C[C@@H]1NC(=O)[C@H](Cc2c[nH]c3ccccc23)NC(=O)[C@H](CC(=O)O)NC(=O)[C@H](Cc2ccc(O)cc2)NC(=O)[C@H](Cc2ccccc2)NC(=O)CSC[C@@H](C(=O)N[C@@H](C)C(N)=O)NC(=O)[C@H]([C@@H](C)O)NC(=O)[C@H](CCCNC(=N)N)NC(=O)[C@H](CC(C)C)NC(=O)[C@H](CC(N)=O)NC(=O)[C@@H](C)NC(=O)[C@H](C)N(C)C(=O)[C@H](C(C)C)NC(=O)[C@H](Cc2ccc(-c3ccccc3)cc2)NC1=O [Compound 1789] ({CH2CO}-FYDWL[Bip]V[NMeA][dA]NLRTCA-NH2; thioether N-14)
7,0.13,CCCC[C@@H]1NC(=O)[C@H](CC(N)=O)NC(=O)[C@@H](C)NC(=O)[C@H](C)N(C)C(=O)[C@H](C(C)C)NC(=O)[C@H](Cc2ccc(-c3ccccc3)cc2)NC(=O)[C@H](CC(C)C)NC(=O)[C@H](Cc2c[nH]c3ccccc23)NC(=O)[C@H](CC(=O)O)NC(=O)[C@H](Cc2ccc(O)cc2)NC(=O)[C@H](Cc2ccccc2)NC(=O)CSC[C@@H](C(=O)N[C@@H](C)C(N)=O)NC(=O)[C@H]([C@@H](C)O)NC(=O)[C@H](CCCCN)NC1=O [Compound 1790] ({CH2CO}-FYDWL[Bip]V[NMeA][dA]N[Nle]KTCA-NH2; thioether N-14)
8,0.13,CC(C)C[C@@H]1NC(=O)[C@H](Cc2c[nH]c3ccccc23)NC(=O)[C@H](CC(N)=O)NC(=O)[C@H](Cc2ccc(O)cc2)NC(=O)[C@H](Cc2ccccc2)NC(=O)CSC[C@@H](C(=O)N[C@@H](C)C(N)=O)NC(=O)[C@H](CO)NC(=O)[C@H](C(C)C)NC(=O)[C@H](CC(C)C)NC(=O)[C@H](CC(N)=O)NC(=O)[C@@H](C)NC(=O)[C@H](C)N(C)C(=O)[C@H](C(C)C)NC(=O)[C@H](Cc2ccc(-c3ccccc3)cc2)NC1=O [Compound 1791] ({CH2CO}-FYNWL[Bip]V[NMeA][dA]NLVSCA-NH2; thioether N-14)
9,0.13,CC(C)C[C@@H]1NC(=O)[C@H](Cc2c[nH]c3ccccc23)NC(=O)[C@H](CC(=O)O)NC(=O)[C@H](Cc2ccc(O)cc2)NC(=O)[C@H](Cc2ccccc2)NC(=O)CSC[C@@H](C(=O)N[C@@H](C)C(N)=O)NC(=O)[C@H](CO)NC(=O)[C@H](C(C)C)NC(=O)[C@H](CC(C)C)NC(=O)[C@H](CCC(=O)O)NC(=O)[C@@H](C)NC(=O)[C@H](C)N(C)C(=O)[C@H](CCC(=O)O)NC(=O)[C@H](Cc2ccc(-c3ccccc3)cc2)NC1=O [Compound 1792] ({CH2CO}-FYDWL[Bip]E[NMeA][dA]ELVSCA-NH2; thioether N-14)
10,0.15,CC(C)C[C@@H]1NC(=O)[C@H](Cc2c[nH]c3ccccc23)NC(=O)[C@H](CC(=O)O)NC(=O)[C@H](Cc2ccc(O)cc2)NC(=O)[C@H](Cc2ccccc2)NC(=O)CSC[C@@H](C(=O)N[C@@H](C)C(N)=O)NC(=O)[C@H](CO)NC(=O)[C@H](C(C)C)NC(=O)[C@H](CC(C)C)NC(=O)[C@H](CC(N)=O)NC(=O)[C@@H](CCCCN)NC(=O)[C@H](C)N(C)C(=O)[C@H](C(C)C)NC(=O)[C@H](Cc2ccc(-c3ccccc3)cc2)NC1=O [Compound 1793] ({CH2CO}-FYDWL[Bip]V[NMeA][dK]NLVSCA-NH2; thioether N-14)
11,0.15,Cc1ccccc1C[C@@H]1NC(=O)[C@H](Cc2ccccc2)NC(=O)CSC[C@@H](C(=O)N[C@@H](C)C(N)=O)NC(=O)[C@H](CO)NC(=O)[C@H](C(C)C)NC(=O)[C@H](CC(C)C)NC(=O)[C@H](CC(N)=O)NC(=O)[C@@H](C)NC(=O)[C@H](C)N(C)C(=O)[C@H](C(C)C)NC(=O)[C@H](Cc2ccc(-c3ccccc3)cc2)NC(=O)[C@H](CC(C)C)NC(=O)[C@H](Cc2c[nH]c3ccccc23)NC(=O)[C@H](CC(=O)O)NC1=O [Compound 1794] ({CH2CO}-F[Phe(2-Me)]DWL[Bip]V[NMeA][dA]NLVSCA-NH2; thioether N-14)
12,0.16,CC(C)C[C@@H]1NC(=O)[C@H](Cc2c[nH]c3ccccc23)NC(=O)[C@H](CC(=O)O)NC(=O)[C@H](Cc2ccc(O)cc2)NC(=O)[C@H](Cc2ccccc2)NC(=O)CSC[C@@H](C(=O)NCC(N)=O)NC(=O)[C@H](CO)NC(=O)[C@H](C(C)C)NC(=O)[C@H](CC(C)C)NC(=O)[C@H](CC(N)=O)NC(=O)[C@H](CCN)NC(=O)[C@H](C)N(C)C(=O)[C@H](C(C)C)NC(=O)[C@H](Cc2ccc(-c3ccccc3)cc2)NC1=O [Compound 1795] ({CH2CO}-FYDWL[Bip]V[NMeA][Dab]NLVSCG-NH2; thioether N-14)
13,0.16,Cc1cccc2c(C[C@@H]3NC(=O)[C@H](CC(=O)O)NC(=O)[C@H](Cc4ccc(O)cc4)NC(=O)[C@H](Cc4ccccc4)NC(=O)CSC[C@@H](C(=O)N[C@@H](C)C(N)=O)NC(=O)[C@H](CO)NC(=O)[C@H](C(C)C)NC(=O)[C@H](CC(C)C)NC(=O)[C@H](CC(N)=O)NC(=O)[C@@H](C)NC(=O)[C@H](C)N(C)C(=O)[C@H](C(C)C)NC(=O)[C@H](Cc4ccc(-c5ccccc5)cc4)NC(=O)[C@H](CC(C)C)NC3=O)c[nH]c12 [Compound 1796] ({CH2CO}-FYD[Trp(7-Me)]L[Bip]V[NMeA][dA]NLVSCA-NH2; thioether N-14)
14,0.16,CC(C)C[C@@H]1NC(=O)[C@H](Cc2c[nH]c3ccccc23)NC(=O)[C@H](CC(=O)O)NC(=O)[C@H](Cc2ccc(O)cc2)NC(=O)[C@H](Cc2ccccc2)NC(=O)CSC[C@@H](C(=O)NCC(N)=O)NC(=O)[C@H](CO)NC(=O)[C@H](C(C)C)NC(=O)[C@H](CC(C)C)NC(=O)[C@H](CC(N)=O)NC(=O)[C@@H](Cc2cnc[nH]2)NC(=O)[C@H](C)N(C)C(=O)[C@H](C(C)C)NC(=O)[C@H](Cc2ccc(-c3ccccc3)cc2)NC1=O [Compound 1797] ({CH2CO}-FYDWL[Bip]V[NMeA][dH]NLVSCG-NH2; thioether N-14)
15,0.17,COc1cccc(-c2ccc(C[C@@H]3NC(=O)[C@H](CC(C)C)NC(=O)[C@H](Cc4c[nH]c5ccccc45)NC(=O)[C@H](CC(=O)O)NC(=O)[C@H](Cc4ccc(O)cc4)NC(=O)[C@H](Cc4ccccc4)NC(=O)CSC[C@@H](C(=O)N[C@@H](C)C(N)=O)NC(=O)[C@H](CO)NC(=O)[C@H](C(C)C)NC(=O)[C@H](CC(C)C)NC(=O)[C@H](CC(N)=O)NC(=O)[C@@H](C)NC(=O)[C@H](C)N(C)C(=O)[C@H](C(C)C)NC3=O)cc2)c1 [Compound 1798] ({CH2CO}-FYDWL[X39]V[NMeA][dA]NLVSCA-NH2; thioether N-14)
16,0.18,CC(C)C[C@@H]1NC(=O)[C@H](Cc2c[nH]c3ccccc23)NC(=O)[C@H](CC(=O)O)NC(=O)[C@H](Cc2ccc(OCC(=O)O)cc2)NC(=O)[C@H](Cc2cnc[nH]2)NC(=O)CSC[C@@H](C(=O)N[C@@H](C)C(N)=O)NC(=O)[C@H](CO)NC(=O)[C@H](C(C)C)NC(=O)[C@H](CC(C)C)NC(=O)[C@H](CC(N)=O)NC(=O)[C@@H](C)NC(=O)[C@H](C)N(C)C(=O)[C@H](C(C)C)NC(=O)[C@H](Cc2ccc(-c3ccccc3)cc2)NC1=O [Compound 1799] ({CH2CO}-HY(Carboxymethyl)DWL[Bip]V[NMeA][dA]NLVSCA-NH2; thioether N-14)
